Laboratory results from US12428430B2 (BRISTOL-MYERS SQUIBB COMPANY, priority 2018, dated 2025).
Each block holds one compound with its values, some of them ahead of it.

Columns and labels:
[1] = system: UUO mice; settings: compared with LPA1 (−/−) mice; cited from earlier work
[2] = system: human foetal lung fibroblasts; settings: Tager et al. Nature Medicine 2008; cited from earlier work
[3] = system: pancreatic cancer cell lines; settings: cited from earlier work
[4] = system: mouse epithelial renal cell line, MCT; settings: co-treatment with LPA, MCT cells; cited from earlier work
[5] = system: nerve-injured mice; settings: pretreatment; cited from earlier work
[6] = target: T1, hLPA1 (Homo sapiens, UniProt Q92633); assay: hLPA1 Binding
T1 sequence (Q92633 whole entry): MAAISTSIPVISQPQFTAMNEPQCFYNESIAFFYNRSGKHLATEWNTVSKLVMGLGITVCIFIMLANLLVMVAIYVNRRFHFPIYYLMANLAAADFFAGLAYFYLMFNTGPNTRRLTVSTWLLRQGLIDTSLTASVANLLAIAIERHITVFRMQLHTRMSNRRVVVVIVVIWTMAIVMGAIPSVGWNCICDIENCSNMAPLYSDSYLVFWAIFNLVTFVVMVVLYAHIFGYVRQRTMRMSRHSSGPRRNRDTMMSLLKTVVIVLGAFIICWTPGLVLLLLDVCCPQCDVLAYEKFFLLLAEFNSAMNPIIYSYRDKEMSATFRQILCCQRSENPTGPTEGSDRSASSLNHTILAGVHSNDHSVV

[7] = target: T1, hLPA1; assay: LPA1 functional antagonist assay (LPA-induced calcium flux in CHO cells overexpressing human LPA1); type: cell-based; parameters: expressed in transfected cells; host or cells: Chinese hamster ovary (CHO) cells; settings: antagonist mode, inhibition of calcium flux induced by 10 nM LPA, read-out: hLPA1 IC50
Method: The effectiveness of compounds of the present invention as LPA1 inhibitors can be determined in an LPA1 functional antagonist assay as follows:
Chinese hamster ovary cells overexpressing human LPA1 were plated overnight (15,000 cells/well) in poly-D-lysine coated 384-well microplates (Greiner bio-one, Cat #781946) in DMEM/F12 medium (Gibco, Cat #11039). Following overnight culture, cells were loaded with calcium indicator dye (AAT Bioquest Inc, Cat #34601) for 30 minutes at 37° C. The cells were then equilibrated to room temperature for 30 minutes before the assay. Test compounds solubilized in DMSO were transferred to 384 well non-binding surface plates (Corning, Cat #3575) using the Labcyte Echo acoustic dispense and diluted with assay buffer [1×HBSS with calcium/magnesium (Gibco Cat #14025-092), 20 mM HEPES (Gibco Cat #15630-080) and 0.1% fatty acid free BSA (Sigma Cat #A9205)] to a final concentration of 0.5% DMSO. Diluted compounds were added to the cells by FDSS6000 (Hamamatsu) at final concentrations ranging from 0.08 nM to 5 μM. and were then incubated for 20 min at room temperature at which time LPA (Avanti Polar Lipids Cat #857130C) was added at final concentrations of 10 nM to stimulate the cells. The compound IC50 value was defined as the concentration of test compound which inhibited 50% of the calcium flux induced by LPA alone. IC50 values were determined by fitting data to a 4-parameter logistic equation (GraphPad Prism, San Diego Calif.).

SMILES: Cc1noc(-c2ccc(CSCCC(=O)O)cc2)c1NC(=O)OC(C)c1ccccc1Cl (stereo not drawn) [Ki16425]
development of renal fibrosis in UUO mice [1]: closely resembled the profile of LPA1 (−/−) mice
chemotaxis of human foetal lung fibroblasts induced by BAL from IPF patients [2]: blocked
in vitro migration in response to LPA and ascites from pancreatic cancer patients ([3]; Yamada et al, J. Biol. Chem. 2004): effectively blocked
LPA-induced and ascites-induced invasion activity ([3]; highly peritoneal metastatic pancreatic cancer cell line): blocked
LPA-induced expression of the profibrotic cytokine CTGF [4]: almost completely suppressed

SMILES: C[C@@H](N)[C@H]1CC[C@H](C(=O)Nc2ccncc2)CC1 [Example Y-27632]
allodynia and hyperalgesia [5]: completely abolished

SMILES: C[C@@H](OC(=O)Nc1c(-c2ccc(C34CCC(CC(=O)O)(CC3)OC4)cc2F)cnn1C)c1ccccc1Cl [Example 32, 2-(4-(4-(5-((((R)-1-(2-chlorophenyl)ethoxy)carbonyl)amino)-1-methyl-1H-pyrazol-4-yl)-3-fluorophenyl)-2-oxabicyclo[2.2.2]octan-1-yl)acetic acid]
IC50 [7]: 0.115 µM

SMILES: C[C@@H](OC(=O)Nc1c(-c2ccc(C34CCC(CC(=O)O)(CC3)OC4)c(F)c2)cnn1C)c1ccccc1Cl [Example 31, 2-(4-(4-(5-((((R)-1-(2-chlorophenyl)ethoxy)carbonyl)amino)-1-methyl-1H-pyrazol-4-yl)-2-fluorophenyl)-2-oxabicyclo[2.2.2]octan-1-yl)acetic acid]
IC50 [7]: 0.112 µM

Next, values leading:

Ki [6]: 0.724 µM
SMILES: Cc1noc(C23CCC(c4ccc(CC(=O)O)cc4)(CC2)OC3)c1NC(=O)O[C@H](C)C1CC1 [Example 55, (R)-2-(4-(4-(4-(((1-cyclopropyl-ethoxy)carbonyl)amino)-3-methyl-isoxazol-5-yl)-2-oxabicyclo[2.2.2]octan-1-yl)phenyl)acetic acid]

IC50 [7]: 1.89 µM
SMILES: CC(C1CC1)N(C)C(=O)OCc1c(-c2ccc(C34CCC(CC(=O)O)(CC3)OC4)cc2)cnn1C (racemic) [Example 36, (rac)-2-(4-(4-(5-((((1-cyclopropyl-ethyl)(methyl)carbamoyl)oxy)methyl)-1-methyl-1-pyrazol-4-yl)phenyl)-2-oxabicyclo[2.2.2]octan-1-yl)acetic acid]

IC50 [7]: 0.379 µM
SMILES: Cc1noc(-c2ccc(C34CCC(CC(=O)O)(CC3)OC4)cc2)c1NC(=O)OC(C)c1cccc(Cl)c1 (racemic) [Example 15, (±)-2-(4-(4-(4-(((1-(3-chlorophenyl)ethoxy)carbonyl)amino)-3-methyl-isoxazol-5-yl)phenyl)-2-oxabicyclo[2.2.2]octan-1-yl)acetic acid]

IC50 [7]: 2.55 µM
SMILES: Cc1noc(-c2ccc(C34CCC(CC(=O)O)(CC3)CO4)cc2)c1COC(=O)N(C)C1CCCC1 [Example 53, 2-(1-(4-(4-(((cyclopentyl(methyl)carbamoyl)oxy)methyl)-3-methylisoxazol-5-yl)phenyl)-2-oxabicyclo[2.2.2]octan-4-yl)acetic acid]
